Laboratory results: US9815847B2 (Icahn School of Medicine at Mount Sinai, priority 2013, dated 2017)

Tests used:
DU145 = experiment: Cytotoxicity on DU145 cancer cell line; type: cell-based; conditions: Homo sapiens, DU-145; DU145 prostate cancer; 96 h; 0.01-100 μM
Procedure: (§1) The effect of the compounds described herein on tumor cells was determined by the assay described by Latham et al., Oncogene 12:827-837 (1996). Tumor cells K562 (chronic myelogenous leukemia; leukemia cell line +ve for Bcr-Abl) or DU145 (prostate cancer) were plated in 12-well dishes at a cell density of 2.5×10^4 cells per well. The plated cells were treated 24 h. later with a DMSO solution of a compound as described herein at multiple concentrations ranging from 0.01 μM to 100 μM. The plates were examined 96 h. later under an inverted microscope, Olympus CK-2 using a 10× objective, and compound activity was noted by physical observation. When necessary, the total number of viable cells was determined by trypsinizing the wells and counting the number of viable cells, as determined by trypan blue exclusion, using a hemacytometer.

K562 = experiment: Cytotoxicity on K562 cancer cell line; type: cell-based; conditions: Homo sapiens; K562 chronic myelogenous leukemia; 96 h; 0.01-100 μM
Procedure: as §1

Row | Structure (SMILES) | IC50 (DU145) | IC50 (K562)
1 | CN1CCN(c2ccc(Nc3ncc(/C=C/C#N)c(N)n3)cc2)CC1 [Compound 8a, 3-{4-Amino-2-[4-(4-methylpiperazin-1-yl)phenylamino]pyrimidin-5-yl}acrylonitrile] | 1000 to 25000 nM | 1000 to 25000 nM
2 | N#C/C=C/c1cnc(N2CCOCC2)nc1NC1CCCC1 [Compound 8z, (E)-3-[4-(Cyclopentylamino)-2-morpholinopyrimidin-5-yl]acrylonitrile] | 1000 to 25000 nM | 1000 to 25000 nM
3 | Cn1ccc(Nc2nc(Nc3ccc4ncccc4c3)ncc2/C=C/S(=O)(=O)c2ccc(F)cc2F)n1 [Compound 15u, (E)-5-{2-[(2,4-Difluorophenyl)sulfonyl]vinyl}-N^4-(1-methyl-1H-pyrazol-3-yl)-N^2-(quinolin-6-yl)pyrimidine-2,4-diamine] | 1000 to 25000 nM | 1000 to 25000 nM
4 | CN1CCN(c2ccc(Nc3ncc(/C=C/C#N)c(NC4CCCCC4)n3)cc2)CC1 [Compound 8i, 3-{4-Cyclohexylamino-2-[4-(4-methylpiperazin-1-yl)phenylamino]pyrimidin-5-yl}acrylonitrile] | 1000 to 25000 nM | < 1000 nM
5 | CN1CCN(c2ccc(Nc3ncc(/C=C/C#N)c(Nc4ccn(C)n4)n3)cc2)CC1 [Compound 8aa, (E)-3-(4-[(1-Methyl-1H-pyrazol-3-yl)amino]-2-{[4-(4-methylpiperazin-1-yl)phenyl]amino}pyrimidin-5-yl)acrylonitrile] | 1000 to 25000 nM | 1000 to 25000 nM
6 | COc1ccc(S(=O)(=O)/C=C/c2cnc(Nc3ccc4[nH]ccc4c3)nc2NC2CCCC2)cc1 [Compound 15k, (E)-N^4-Cyclopentyl-N^2-(1H-indol-5-yl)-5-{2-[(4-methoxyphenyl)sulfonyl]vinyl}pyrimidine-2,4-diamine] | 1000 to 25000 nM | 1000 to 25000 nM
7 | CNc1nc(Nc2ccc(N3CCOCC3)cc2)ncc1/C=C/S(=O)(=O)c1ccc(F)cc1F [Compound 15e, (E)-5-{2-[(2,4-Difluorophenyl)sulfonyl]vinyl}-N^4-methyl-N^2-(4-morpholinophenyl)pyrimidine-2,4-diamine] | 50000 to 100000 nM | 50000 to 100000 nM
8 | COc1ccc(Nc2ncc(/C=C/C#N)c(NC3CCCC3)n2)cc1 [Compound 8n, 3-{4-(Cyclopentylamino)-2-[(4-methoxyphenyl)amino]pyrimidin-5-yl)acrylonitrile] | 1000 to 25000 nM | 1000 to 25000 nM
9 | N#C/C=C/c1cnc(Nc2ccc3[nH]ccc3c2)nc1NC1CCCC1 [Compound 8k, 3-[4-Cyclopentylamino-2-(1H-indol-5-ylamino)pyrimidin-5-yl]acrylonitrile] | 1000 to 25000 nM | < 1000 nM
10 | CN1CCN(c2ccc(Nc3ncc(/C=C/C#N)c(NCC4CC4)n3)cc2)CC1 [Compound 8f, 3-{4-(Cyclopropylmethyl)amino-2-[4-(4-methylpiperazin-1-yl)phenylamino]pyrimidin-5-yl}acrylonitrile] | < 1000 nM | < 1000 nM
11 | COc1cc(N2CCN(C)CC2)ccc1Nc1ncc(/C=C/C#N)c(NC2CCCC2)n1 [Compound 8bb, (E)-3-[4-(Cyclopentylamino)-2-{[2-methoxy-4-(4-methylpiperazin-1-yl)phenyl]amino}pyrimidin-5-yl]acrylonitrile] | 1000 to 25000 nM | 1000 to 25000 nM
12 | CN1CCN(c2ccc(Nc3ncc(/C=C/C#N)c(NC4CC4)n3)cc2)CC1 [Compound 8g, 3-{4-Cyclopropylamino-2-[4-(4-methylpiperazin-1-yl)phenylamino]pyrimidin-5-yl}acrylonitrile] | < 1000 nM | < 1000 nM
13 | COc1ccc(S(=O)(=O)/C=C/c2cnc(Nc3ccc(N4CCN(C)CC4)cc3)nc2NC2CCCC2)cc1 [Compound 15j, (E)-N^4-Cyclopentyl-5-{2-[(4-methoxyphenyl)sulfonyl]vinyl}-N^2-[4-(4-methylpiperazin-1-yl)phenyl]pyrimidine-2,4-diamine] | 1000 to 25000 nM | 1000 to 25000 nM
14 | CN1CCN(c2ccc(Nc3ncc(/C=C/S(=O)(=O)c4ccc(F)cc4F)c(Nc4ccn(C)n4)n3)cc2)CC1 [Compound 15r, (E)-5-{2-[(2,4-Difluorophenyl)sulfonyl]vinyl}-N^4-(1-methyl-1H-pyrazol-3-yl)-N^2-[4-(4-methylpiperazin-1-yl)phenyl]pyrimidine-2,4-diamine] | 1000 to 25000 nM | 1000 to 25000 nM
15 | O=S(=O)(/C=C/c1cnc(N2CCOCC2)nc1NC1CCCC1)c1ccc(F)cc1N1CCOCC1 [Compound 15p, (E)-N-Cyclopentyl-5-{2-[(4-fluoro-2-morpholinophenyl)sulfonyl]vinyl}-2-morpholinopyrimidin-4-amine] | 1000 to 25000 nM | 50000 to 100000 nM
16 | CCN(c1nc(Nc2ccc(N3CCN(C)CC3)cc2)ncc1/C=C/C#N)C1CCCC1 [Compound 8x, 3-{4-(N-Cyclopentyl-N-ethylamino)-2-[4-(4-methylpiperazin-1-yl)phenylamino]pyrimidin-5-yl}acrylonitrile] | < 1000 nM | < 1000 nM

Row | Structure (SMILES) | IC50 (DU145) | IC50 (K562)
17 | CN1CCN(c2ccc(Nc3ncc(/C=C/S(=O)(=O)c4ccc(F)cc4F)c(NC4CCCC4)n3)cc2)CC1 [Compound 15b, N^4-Cyclopentyl-5-{2-[(2,4-difluorophenyl)sulfonyl]vinyl}-N^2-[4-(4-methylpiperazin-1-yl)phenyl]pyrimidine-2,4-diamine] | 1000 to 25000 nM | 1000 to 25000 nM
18 | CCCNc1nc(Nc2ccc(N3CCN(C)CC3)cc2)ncc1/C=C/C#N [Compound 8d, 3-{4-Propylamino-2-[4-(4-methylpiperazin-1-yl)phenylamino]pyrimidin-5-yl}acrylonitrile] | < 1000 nM | < 1000 nM
19 | N#C/C=C/c1cnc(Nc2ccc(N3CCOCC3)cc2)nc1NCC1CC1 [Compound 8r, 3-{4-[N-(Cyclopropylmethyl)amino]-2-[4-(morpholin-4-yl)phenylamino]pyrimidin-5-yl}acrylonitrile] | < 1000 nM | < 1000 nM
20 | CCNc1nc(Nc2ccc(N3CCN(C)CC3)cc2)ncc1/C=C/C#N [Compound 8c, 3-{4-Ethylamino-2-[4-(4-methylpiperazin-1-yl)phenylamino]pyrimidin-5-yl}acrylonitrile] | < 1000 nM | < 1000 nM
21 | CNc1nc(Nc2cc(OC)c(OC)c(OC)c2)ncc1/C=C/S(=O)(=O)c1ccc(F)cc1F [Compound 15g, (E)-5-{2-[(2,4-Difluorophenyl)sulfonyl]vinyl}-N^4-methyl-N^2-(3,4,5-trimethoxyphenyl)pyrimidine-2,4-diamine] | 1000 to 25000 nM | 50000 to 100000 nM
22 | N#C/C=C/c1cnc(Nc2ccc(N3CCOCC3)cc2)nc1NC1CCCC1 [Compound 8j, 3-{4-Cyclopentylamino-2-[(4-morpholin-4-yl)phenylamino]pyrimidin-5-yl}acrylonitrile] | 1000 to 25000 nM | 1000 to 25000 nM
23 | CN1CCN(c2ccc(Nc3ncc(/C=C/C#N)c(NC4CCCC4)n3)nc2)CC1 [Compound 8q, 3-(4-(Cyclopentylamino)-2-((5-(4-methylpiperazin-1-yl)pyridin-2-yl)amino)pyrimidin-5-yl)acrylonitrile] | < 1000 nM | < 1000 nM
24 | CC(C)Nc1nc(Nc2ccc(N3CCN(C)CC3)cc2)ncc1/C=C/C#N [Compound 8e, 3-{4-Isopropylamino-2-[4-(4-methylpiperazin-1-yl)phenylamino]pyrimidin-5-yl}acrylonitrile] | < 1000 nM | < 1000 nM
25 | CCN(C)c1nc(Nc2ccc(N3CCN(C)CC3)cc2)ncc1/C=C/C#N [Compound 8v, 3-{4-(N-Ethyl-N-methylamino)-2-[4-(4-methylpiperazin-1-yl)phenylamino]pyrimidin-5-yl}acrylonitrile] | 25000 to 50000 nM | 25000 to 50000 nM
26 | CCOC(=O)/C=C/c1cnc(Nc2ccc(N3CCN(C)CC3)cc2)nc1NC1CCCC1 [Compound 21, (E)-3-[4-(Cyclopentylamino)-2-{[4-(4-methylpiperazin-1-yl)phenyl]amino}pyrimidin-5-yl]acrylic acid ethyl ester] | 1000 to 25000 nM | < 1000 nM
27 | COc1ccc(Nc2ncc(/C=C/S(=O)(=O)c3ccc(OC)cc3)c(NC3CCCC3)n2)cc1 [Compound 15m, (E)-N^4-Cyclopentyl-N^2-(4-methoxyphenyl)-5-{2-[(4-methoxyphenyl)sulfonyl]vinyl}pyrimidine-2,4-diamine] | 1000 to 25000 nM | 1000 to 25000 nM
28 | CN1CCC(c2ccc(Nc3ncc(/C=C/C#N)c(NC4CCCC4)n3)cc2)CC1 [Compound 8l, 3-{4-Cyclopentylamino-2-[4-(1-methylpiperidin-4-yl)phenylamino]pyrimidin-5-yl}acrylonitrile] | 1000 to 25000 nM | 1000 to 25000 nM
29 | CNc1nc(Nc2nc3ccccc3[nH]2)ncc1/C=C/S(=O)(=O)c1ccc(F)cc1F [Compound 15h, (E)-N^2-(1H-Benzo[d]imidazol-2-yl)-5-{2-[(2,4-difluorophenyl)sulfonyl]vinyl}-N^4-methylpyrimidine-2,4-diamine] | 1000 to 25000 nM | 1000 to 25000 nM
30 | Cn1ccc(Nc2nc(Nc3ccc4[nH]ccc4c3)ncc2/C=C/S(=O)(=O)c2ccc(F)cc2F)n1 [Compound 15s, (E)-5-{2-[(2,4-Difluorophenyl)sulfonyl]vinyl}-N^2-(1H-indol-5-yl)-N^4-(1-methyl-1H-pyrazol-3-yl)pyrimidine-2,4-diamine] | 1000 to 25000 nM | 1000 to 25000 nM
31 | CN1CCN(c2ccc(N(C(=O)CCCC[C@@H]3SC[C@@H]4NC(=O)N[C@@H]43)c3ncc(/C=C/C#N)c(NC4CCCC4)n3)cc2)CC1 [Compound 8y, N-[5-(2-Cyanovinyl)-4-(cyclopentylamino)pyrimidin-2-yl]-N-[4-(4-methylpiperazin-1-yl)phenyl]-5-((3aS,4S,6aR)-2-oxohexahydro-1H-thieno[3,4-d]imidazol-4-yl)pentanamide] | 1000 to 25000 nM | 1000 to 25000 nM
